Strand notation (5' to 3'): a small letter for the sugar, then the base; units joined by * are phosphorothioate-linked, units joined directly phosphodiester-linked; [ ] holds rarer units or linkages, { } end groups; capitals alone tell only the bases. [cMOE-R-N] = 6-(R)-CH2-O-CH3 BNA nucleoside (4'-CH(CH2OCH3)-O-2' bridge, R configuration) (N: the base); [6'R-Me-BNA] = 6-(R)-CH3 bicyclic nucleoside (R-constrained ethyl); [5'S-Me-BNA] = 5'-(S)-CH3 4'-CH2-O-2' bicyclic nucleoside; [6'S-cMOE] = 6-(S)-CH2-O-CH3 bicyclic nucleoside; e = 2'-O-(2-methoxyethyl) (MOE); l = locked nucleic acid (LNA); k = constrained ethyl (cEt); v = modified nucleoside v; [5mC] = 5-methylcytosine; d = 2'-deoxy (DNA)
Experiments:
RNA complement = experiment: Tm by melting against RNA complement (Example 51); details: 18 mers, melting against the RNA 20 mer (131566), 14 base complementary region
PTEN [1] = experiment: 5′-vinyl and LNA gapped oligomers targeted to PTEN (Example 51), in vivo single injection, liver mRNA; details: 64 hrs; for PTEN % UTC: 18 mers, liver mRNA; for ED50: PTEN liver mRNA
PTEN [2] = experiment: 2-14-2 gapped oligomers targeted to PTEN (Example 50), in vivo single injection, liver mRNA; details: 72 hrs
PTEN [3] = experiment: 2-14-2 gapped oligomers targeted to PTEN (Example 42), in vivo single injection, liver mRNA; details: for % UTC: liver mRNA, 72 hrs
[4] = injected once 60 mg/kg (last dose column)
[5] = injected once, second dose column, printed 60 mg/kg

Substance | % UTC (PTEN [2]; injected once 2 μmol/kg) | % UTC (PTEN [2]; injected once 10 μmol/kg) | % UTC (PTEN [3]; injected once 2 μmol/kg) | % UTC (PTEN [3]; injected once 10 μmol/kg) | other results
ISIS NO. 411027: CvUvGCTAGCCTCTGGATUvUv; 18 mer gapped oligomer targeted to PTEN, subscript v nucleoside illustrated in a drawing (CUGCTAGCCTCTGGATUU; sugars from the 5' end v2 d14 v2, backbone and methylation of C not given here; further chemistry not fully specified) |  |  |  |  | Tm (RNA complement): 59.9 °C; PTEN % UTC (PTEN [1]; injected once 1.9 mg/kg): 89%; PTEN % UTC (PTEN [1]; injected once 19 mg/kg): 24%; PTEN % UTC (PTEN [1]; [4]): 7%; PTEN % UTC (PTEN [1]; [5]): 61%; ED50 (PTEN [1]; injected once): 7.4 mg/kg
ISIS NO. 400525: CSUSGCTAGCCTCTGGATUSUS; 6-(S)-CH2-O-CH3 BNA 2-14-2 gapped oligomer targeted to PTEN (CUGCTAGCCTCTGGATUU; sugars from the 5' end [6'S-cMOE]2 d14 [6'S-cMOE]2, backbone and methylation of C not given here) | 21% | 3% |  |  | 
ISIS NO. 400523: CSUSGCTAGCCTCTGGATUSUS; 6-(S)-CH3 BNA 2-14-2 gapped oligomer targeted to PTEN (CUGCTAGCCTCTGGATUU; sugars from the 5' end k2 d14 k2, backbone and methylation of C not given here) | 17% | 4% |  |  | 
ISIS NO. 400522: CRURGCTAGCCTCTGGATURUR; 6-(R)-CH3 BNA 2-14-2 gapped oligomer targeted to PTEN (CUGCTAGCCTCTGGATUU; sugars from the 5' end [6'R-Me-BNA]2 d14 [6'R-Me-BNA]2, backbone and methylation of C not given here) | 18% | 4% |  |  | 
ISIS NO. 400521: CSUSGCTAGCCTCTGGATUSUS; 5′-(S)-CH3 BNA 2-14-2 gapped oligomer targeted to PTEN (CUGCTAGCCTCTGGATUU; sugars from the 5' end [5'S-Me-BNA]2 d14 [5'S-Me-BNA]2, backbone and methylation of C not given here) |  |  | 21.4% | 3.8% | efficacy, comparison in words (PTEN [3]; high dose group (10 micromole/Kg)): essentially equally efficacious as 394425
ISIS NO. 400524: CRURGCTAGCCTCTGGATURUR; 6-(R)-CH2-O-CH3 BNA 2-14-2 gapped oligomer targeted to PTEN ([cMOE-R-C]*[cMOE-R-U]*dG*dC*dT*dA*dG*dC*dC*dT*dC*dT*dG*dG*dA*dT*[cMOE-R-U]*[cMOE-R-U]; antisense) | 23% | 4% |  |  | 
ISIS NO. 394420: MeCeTeGCTAGCCTCTGGATTeTe; 2′-O-MOE 2-14-2 gapped oligomer targeted to PTEN (CTGCTAGCCTCTGGATTT; sugars from the 5' end e2 d14 e2, [5mC] at 1, backbone not given here) [reference compound] | 79% | 26% | 79% | 26% | 
ISIS NO. 394425: MeClTlGCTAGCCTCTGGATTlTl; 4′-CH2-O-2′ BNA 2-14-2 gapped oligomer targeted to PTEN (CTGCTAGCCTCTGGATTT; sugars from the 5' end l2 d14 l2, [5mC] at 1, backbone not given here) [reference compound] |  |  | 11% | 2.1% | Tm (RNA complement): 61.6 °C; PTEN % UTC (PTEN [1]; injected once 1.9 mg/kg): 100%; PTEN % UTC (PTEN [1]; injected once 19 mg/kg): 8%; PTEN % UTC (PTEN [1]; [4]): 4%; PTEN % UTC (PTEN [1]; [5]): 35%; ED50 (PTEN [1]; injected once): 4.4 mg/kg

Reference: patent US8088746B2, “Bis-modified bicyclic nucleic acid analogs” (Isis Pharmaceuticals, Inc., priority 2006, dated 2012)
